Measured values: patent US8496928B2, “Method for preventing and treating cardiovascular diseases with BRCA1” (priority 2008, dated 2013)

Experiments:
[1] = system: rat neonatal ventricular cardiomyocytes (NRVMs); assay: Cardiomyocyte apoptosis, AnnexinV-FITC/PI flow cytometry and cleaved caspase-3 western blot; format: cell-based
Method: In FIG. 5A apoptosis in control, BRCA1-overexpressing, doxorubicin-treated and doxorubicin-treated-BRCA1-overexpressing neonatal rat ventricular cardiomyocytes (NRVCM) was assessed by Annexin V-FITC and propidium iodide staining coupled with flow cytometry. Quadrants S1, S2, S3 and S4 respectively represent necrotic, late apoptotic, viable live and early apoptotic NRVCM. FIG. 5B is a representative western blot of cleaved caspase-3 and α-actin proteins in NRVCM infected with either 10 MOI Ad-hBRCA1 or Ad-null vector for 48 hours before being exposed to 2 μM doxorubicin for 24 hours. Data are expressed as mean±SD. n=3. *P<0.05 vs untreated control group. †P<0.01 vs doxorubicin group.
The effect of pifithrin-α on doxorubicin-induced cardiomyocyte apoptosis, with or without overexpression of BRCA1 was examined. […]
BRCA-1 induced gain of function and protection against genotoxic and oxidative stress-induced apoptosis was also examined in vitro. […] Cardiomyocytes were incubated with the virus (human BRCA1 or GFP) for 48 hours after which expression of human BRCA1 or GFP were determined. Expression of BRCA1 was analyzed by real-time PCR and western blotting (see FIGS. 4A and 4B) and expression of GFP was analyzed by live cell video microscopy. […] Based on this observation, 10 MOI was determined to be the best of the three tested concentrations of the adenoviral construct. […]

[2] = system: BRCA1 and p53 interaction; assay: Co-immunoprecipitation of BRCA1 and p53 in cardiomyocytes; format: cell-based, rat; details: agent alone
Method: BRCA1 physically interacts with p53 in order to regulate p53 activity in a context dependent manner. Proteins were extracted after treatment and equal amounts (100 μg) of lysates were resolved by SDS PAGE.
Experiments were performed to access the interaction of BRCA1 with p53 in cardiomyocytes. […] Additionally, doxorubicin treatment, in the presence of overexpressing BRCA1 strengthened this association (lane 4, FIG. 6).
For analysis of physical interaction between BRCA1 and p53, cardiomyocytes were maintained and treated in 6-cm culture-dishes. After adenoviral and/or stress treatments, cells were scraped and suspended in 100 μL of RIPA buffer. The total cell lysate was obtained after homogenization and centrifugation at 14,000 g for 30 minutes at 4° C. Protein concentration was determined by the Bradford assay. Aliquots of each fraction (100 μg protein for total cell lysate) were incubated with either 0.5 μg of anti-p53 mouse monoclonal antibody (Cell Signaling Technology, USA) or with 0.5 μg of anti-BRCA1 (Santa Cruz Biotechnology, USA) for 1 hour at 4° C. Addition of protein A-Sepharose (Santa Cruz Biotechnology) and incubation for 16 hours at 4° C. was followed by centrifugation and repetitive washing of the Sepharose beads. […]

[3] = system: p53; assay: Western blot for p53 and phospho-p53 in cultured cardiomyocytes; format: cell-based, rat; details: NRVMs
Method: GAPDH was used as loading control. Phospho-p53 antibodies were directed against serine 15 of p53 protein.
Cardiomyocytes were infected with 10MOI of a replication deficient adenoviral vector containing the CMV promoter and either human BRCA1 or a null vector (human Adenovirus Type5 dE1/E3, Vector Biolabs, USA). Following 48 hours incubation, cardiomyocytes were treated with 21 μM of doxorubicin or 50 μM of H2O2. The inhibitor of p53, pifithrin-α (10 μm, Sigma Aldrich, USA) was added 2 hrs prior to the addition of doxorubicin or hydrogen peroxide. After 24 hours, cardiomyocytes were either trypsinized and collected for flow cytometry or harvested for protein and RNA extraction.

[4] = system: HUVECs; assay: HUVEC apoptosis assays (Annexin V-FITC/PI flow cytometry, cleaved caspase-3, DNA fragmentation); format: cell-based, human; details: ad-null infected HUVECs, 2 μM doxorubicin 24 hours
Method: In FIG. 23A ad-null or ad-BRCA1 infected HUVECs were treated with TNFα (20 ng/ml) for 24 hours. Cells were harvested for Annexin V-FITC and Propidium Iodide staining followed by flow cytometry. Total apoptotic cells are shown as mean±SD (n=3 in triplicate, **p<0.01). In FIG. 23B, HUVECs were treated with either siBRCA1 (10 nM) or scrambled siRNA (10 nM) for 24 hours. BRCA1-silenced and control HUVECs were treated with TNFα (20 ng/ml), stained with Annexin V-FITC and Propidium Iodide, and analyzed by flow cytometry. The percentage of total apoptotic cells are presented as mean±SD (n=3 in triplicate, **p<0.01). […] Data was calculated as the percentage of total apoptotic cells and presented as mean±SD (n=3 in triplicate, **p<0.01).
FIG. 31 is a bar graph showing protection of HUVECs against doxorubicin-induced apoptosis by BRCA1 overexpression. […] Data was calculated as the percentage of total apoptotic cells and presented as mean±SD (n=3 in triplicate, *p<0.01 vs. Ad-null group, †p<0.01 vs. Ad-null+2 μM Dox group). […]
Human umbilical vein endothelial cells (HUVECs) were purchased from Cambrex and cultured in MCDB-131 complete medium (Cambrex Corporation). […] These concentrations were determined from pilot optimization studies. […]
Apoptotic and necrotic cell death were assessed in ad-BRCA1 and ad-null infected HUVECs by flow cytometry coupled with the BD Annexin V-FITC Apoptosis Detection Kit. […]

[5] = system: Wild-type mice; assay: Doxorubicin-induced cardiac dysfunction in mice, echocardiography; details: doxorubicin 10 mg/kg i.p.; echocardiography day 3 and day 7
Method: Left ventricular function was assessed by echocardiography measuring percent systolic ejection fraction 3 days (FIG. 3A) or 7 days (FIG. 3B) after administration of vehicle, Ad-null vector (40 μl of 10^10 PFU, i.v.), Ad-GFP (40 μl of 10^10 PFU, i.v.), doxorubicin (10 mg/kg, i.p.) or doxorubicin (10 mg/kg, i.p.) with Ad-hBRCA1 (40 μl of 10^10 PFU, i.v.). Left ventricular function was also assessed by measuring fractional shortening values 3 days (FIG. 3C) after administration of vehicle, Ad-null vector (40 μl of 10^10 PFU, i.v.), Ad-GFP (40 μl of 10^10 PFU, i.v.), doxorubicin (10 mg/kg, i.p.) or doxorubicin (10 mg/kg, i.p.) with Ad-hBRCA1 (40 μl of 10^10 PFU, i.v.). *P<0.01 vs corresponding PBS group. †P<0.01 vs corresponding doxorubicin group. # p<0.01 vs. PBS+ad-GFP, ## p<0.001 vs. Dox+ad-BRCA1. n=3 for PBS and GFP groups; n=7 for doxorubicin and doxorubicin-BRCA1 groups. […]
Double-blinded echocardiography was performed on the doxorubicin- and adenoviral vectors-treated mice 3 days and 7 days post-treatment. […] End-diastolic posterior LV wall thickness, LV end-diastolic (LVEDD) and end-systolic LV dimension (LVESD) were measured. During diastole, LV dimension and wall thickness were measured from the maximum chamber cavity; during systole, they were measured during maximum anterior motion of the posterior wall. […]

| SMILES | number of apoptotic cardiomyocytes ([1]; BRCA1-overexpressing cardiomyocytes treated with doxorubicin and PFT-α) | number of apoptotic cells ([1]; cardiomyocytes treated with doxorubicin, PFT-α 10 μm added 2 hrs prior, vs doxorubicin only) | BRCA1 and p53 association [2] | p53 level ([3]; agent on its own) | serine-15 phosphorylation of p53 ([3]; doxorubicin alone) | apoptosis [4] | cardiac function (percent systolic ejection fraction, fractional shortening) [5] |
| --- | --- | --- | --- | --- | --- | --- | --- |
| Cc1ccc(C(=O)Cn2c3c(sc2=N)CCCC3)cc1 [PFT-α, pifithrin-α] | no further reduction | significant reductions | – | – | – | – | – |
| COc1cccc2c1C(=O)c1c(O)c3c(c(O)c1C2=O)C[C@@](O)(C(=O)CO)C[C@@H]3O[C@H]1C[C@H](N)[C@H](O)[C@H](C)O1 [doxorubicin] | – | – | decline | upregulated p53 | activated | prevalent | impairment in cardiac function |
